From publication PMC3694096, “Development of Novel In Vivo Chemical Probes to Address CNS Protein Kinase Involvement in Synaptic Dysfunction” (PLoS ONE, 2013)
Where two headings read alike, the source gives them in different places.

Key:
PI3 kinase (p110α/p65α) = molecular target: T1, PI3 kinase (p110α/p65α) (Homo sapiens, UniProt P42336); test: Kinome profiler screen; format: biochemical; conditions: at 20,000 nM inhibitor; kinase activity remaining
T1 construct: purchased Millipore KinaseProfiler

[1] = molecular target: T2, PI3 Kinase (p110α (E545K)/p85α) (Homo sapiens, UniProt P42336, E545K); test: Kinome profiler screen; format: biochemical; conditions: at 20,000 nM inhibitor; kinase activity remaining
T2 construct: purchased Millipore KinaseProfiler

Blk = molecular target: T3, Blk (Homo sapiens, UniProt P51451); test: Kinome profiler screen; format: biochemical; conditions: at 20,000 nM inhibitor; kinase activity remaining
T3 construct: purchased Millipore KinaseProfiler

JNK1α1 = JNK1α1 (Homo sapiens, UniProt P45983); test: biochemical
[2] = molecular target: T4, PI3 Kinase (p110α (E542K)/p85α) (Homo sapiens, UniProt P42336, E542K); test: Kinome profiler screen; format: biochemical; conditions: at 20,000 nM inhibitor; kinase activity remaining
T4 construct: purchased Millipore KinaseProfiler

[3] = molecular target: T5, PI3 Kinase (p110α (H1047R)/p85α) (Homo sapiens, UniProt P42336, H1047R); test: Kinome profiler screen; format: biochemical; conditions: at 20,000 nM inhibitor; kinase activity remaining
T5 construct: purchased Millipore KinaseProfiler

panel of 158 GPCRs = test: Functional GPCR agonist and antagonist screen (calcium flux FLIPR); format: cell-based; conditions: outcome in words
SAPK3 (SAPK=p38MAPK) = molecular target: T6, SAPK3 (SAPK=p38MAPK) (Homo sapiens, UniProt P53778); test: Kinome profiler screen; format: biochemical; conditions: at 20,000 nM inhibitor; kinase activity remaining
T6 construct: purchased Millipore KinaseProfiler

[4] = system: primary microglia from wild-type (WT) mice; test: LPS-induced IL-1β in primary microglia, wild-type; format: cell-based, C57Bl/6 mice; conditions: LPS 3 ng/ml, 24 hrs
[5] = system: PI3 Kinase (p110α (H1047R)/p85α); test: Kinome profiler screen; format: biochemical; conditions: at 20,000 nM inhibitor; kinase activity remaining
Aurora-C = molecular target: T7, Aurora-C (Homo sapiens, UniProt Q9UQB9); test: Kinome profiler screen; format: biochemical; conditions: at 20,000 nM inhibitor; kinase activity remaining
T7 construct: purchased Millipore KinaseProfiler

[6] = system: phospho-MK-2 (p38αMAPK substrate) in BV-2 cells; test: LPS-induced phosphorylation of MK-2 in BV-2 cells; format: cell-based, murine; conditions: LPS-stimulated BV-2 cells, 60 min
JNK2α2 = JNK2α2 (Homo sapiens, UniProt P45984); test: biochemical
MLCK = test: Kinome profiler screen; format: biochemical; conditions: at 20,000 nM inhibitor; kinase activity remaining
SAPK4 (SAPK=p38MAPK) = molecular target: T8, SAPK4 (SAPK=p38MAPK) (Homo sapiens, UniProt O15264); test: Kinome profiler screen; format: biochemical; conditions: at 20,000 nM inhibitor; kinase activity remaining
T8 construct: purchased Millipore KinaseProfiler

SAPK2b (SAPK=p38MAPK) = molecular target: T9, SAPK2b (SAPK=p38MAPK) (Homo sapiens, UniProt Q15759); test: Kinome profiler screen; format: biochemical; conditions: at 20,000 nM inhibitor; kinase activity remaining
T9 construct: purchased Millipore

NLK = molecular target: T10, NLK (Homo sapiens, UniProt Q9UBE8); test: Kinetic analysis, Ki; format: biochemical; parameters: purchased Millipore
T10 sequence (Q9UBE8 1-527): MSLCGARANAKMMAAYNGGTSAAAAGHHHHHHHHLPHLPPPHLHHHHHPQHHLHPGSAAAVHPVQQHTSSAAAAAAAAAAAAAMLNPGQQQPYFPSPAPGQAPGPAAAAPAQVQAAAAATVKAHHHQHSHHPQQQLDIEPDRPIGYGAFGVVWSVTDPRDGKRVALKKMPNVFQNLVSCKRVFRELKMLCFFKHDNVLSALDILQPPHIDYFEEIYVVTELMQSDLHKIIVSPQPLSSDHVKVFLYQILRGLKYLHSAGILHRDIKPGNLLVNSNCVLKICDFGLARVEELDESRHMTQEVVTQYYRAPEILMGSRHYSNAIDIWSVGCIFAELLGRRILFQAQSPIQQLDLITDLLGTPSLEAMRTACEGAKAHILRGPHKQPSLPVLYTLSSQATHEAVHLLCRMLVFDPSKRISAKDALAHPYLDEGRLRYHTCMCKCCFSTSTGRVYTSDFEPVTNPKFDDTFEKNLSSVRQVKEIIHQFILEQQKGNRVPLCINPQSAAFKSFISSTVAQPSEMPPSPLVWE

[7] = Acid dissociation constant (pKa); format: physicochemical; conditions: water with methanol co-solvent, ionic strength 0.15 M KCl, 22±2°C

T5 sequence (P42336 whole entry H1047R): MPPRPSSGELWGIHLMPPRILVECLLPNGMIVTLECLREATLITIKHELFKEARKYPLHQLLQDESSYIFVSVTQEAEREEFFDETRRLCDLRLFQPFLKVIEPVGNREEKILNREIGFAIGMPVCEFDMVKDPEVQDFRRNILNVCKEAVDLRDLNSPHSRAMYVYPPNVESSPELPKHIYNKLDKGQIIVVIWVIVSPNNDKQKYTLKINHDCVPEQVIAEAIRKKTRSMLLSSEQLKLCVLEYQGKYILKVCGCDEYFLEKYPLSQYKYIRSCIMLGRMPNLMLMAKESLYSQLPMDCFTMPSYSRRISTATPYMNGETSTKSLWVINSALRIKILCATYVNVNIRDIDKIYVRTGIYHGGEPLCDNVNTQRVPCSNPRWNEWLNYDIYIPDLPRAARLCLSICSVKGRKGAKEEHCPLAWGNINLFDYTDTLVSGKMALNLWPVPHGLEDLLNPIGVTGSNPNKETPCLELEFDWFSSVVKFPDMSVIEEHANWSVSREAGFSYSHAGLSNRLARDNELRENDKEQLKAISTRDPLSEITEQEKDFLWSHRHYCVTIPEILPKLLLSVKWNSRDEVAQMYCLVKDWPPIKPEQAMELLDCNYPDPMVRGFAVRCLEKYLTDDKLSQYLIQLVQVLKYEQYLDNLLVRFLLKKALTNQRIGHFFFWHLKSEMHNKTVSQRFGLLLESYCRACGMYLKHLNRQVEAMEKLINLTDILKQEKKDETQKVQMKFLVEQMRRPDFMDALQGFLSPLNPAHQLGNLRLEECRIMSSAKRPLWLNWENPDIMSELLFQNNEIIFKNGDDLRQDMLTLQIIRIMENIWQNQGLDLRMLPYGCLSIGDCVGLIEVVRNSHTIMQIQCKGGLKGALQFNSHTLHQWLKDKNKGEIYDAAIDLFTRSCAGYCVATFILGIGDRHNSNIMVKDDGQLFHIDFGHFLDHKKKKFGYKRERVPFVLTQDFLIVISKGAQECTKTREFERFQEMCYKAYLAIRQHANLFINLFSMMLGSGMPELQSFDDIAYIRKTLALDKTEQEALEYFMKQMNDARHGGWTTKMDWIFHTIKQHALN
T5 sequence (P27986 whole entry partner): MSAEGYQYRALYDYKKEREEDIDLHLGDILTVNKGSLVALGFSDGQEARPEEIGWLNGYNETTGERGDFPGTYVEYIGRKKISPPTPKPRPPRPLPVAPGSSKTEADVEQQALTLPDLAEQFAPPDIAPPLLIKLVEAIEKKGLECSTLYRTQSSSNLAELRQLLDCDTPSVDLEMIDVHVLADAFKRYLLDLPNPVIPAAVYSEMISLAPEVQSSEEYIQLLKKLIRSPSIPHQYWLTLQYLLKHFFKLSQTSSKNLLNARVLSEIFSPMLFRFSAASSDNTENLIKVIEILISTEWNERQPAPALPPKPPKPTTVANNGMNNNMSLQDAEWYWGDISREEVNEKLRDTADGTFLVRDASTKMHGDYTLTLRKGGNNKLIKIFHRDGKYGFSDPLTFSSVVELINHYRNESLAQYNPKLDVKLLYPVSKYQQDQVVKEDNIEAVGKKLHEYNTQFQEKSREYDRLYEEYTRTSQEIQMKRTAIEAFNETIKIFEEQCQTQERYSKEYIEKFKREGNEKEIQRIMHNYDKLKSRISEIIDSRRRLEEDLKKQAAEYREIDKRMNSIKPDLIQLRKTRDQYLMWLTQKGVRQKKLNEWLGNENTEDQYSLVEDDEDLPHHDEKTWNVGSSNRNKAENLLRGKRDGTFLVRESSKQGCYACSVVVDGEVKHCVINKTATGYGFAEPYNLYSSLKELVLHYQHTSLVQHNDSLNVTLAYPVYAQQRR
T3 sequence (P51451 whole entry): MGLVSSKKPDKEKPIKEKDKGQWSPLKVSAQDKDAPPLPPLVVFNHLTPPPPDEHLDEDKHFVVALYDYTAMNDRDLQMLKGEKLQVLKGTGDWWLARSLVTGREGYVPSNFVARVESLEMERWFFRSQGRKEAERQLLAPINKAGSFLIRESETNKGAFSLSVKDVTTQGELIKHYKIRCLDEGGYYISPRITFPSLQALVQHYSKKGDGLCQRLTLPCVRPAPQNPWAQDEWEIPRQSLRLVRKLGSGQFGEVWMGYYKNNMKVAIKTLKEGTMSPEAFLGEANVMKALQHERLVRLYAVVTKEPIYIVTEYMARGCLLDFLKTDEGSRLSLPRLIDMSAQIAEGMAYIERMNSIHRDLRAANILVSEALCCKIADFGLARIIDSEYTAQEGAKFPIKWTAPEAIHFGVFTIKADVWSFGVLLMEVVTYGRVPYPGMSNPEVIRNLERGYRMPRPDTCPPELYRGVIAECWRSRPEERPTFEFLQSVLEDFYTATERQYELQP
Sequence of JNK2α2 (P45984 whole entry): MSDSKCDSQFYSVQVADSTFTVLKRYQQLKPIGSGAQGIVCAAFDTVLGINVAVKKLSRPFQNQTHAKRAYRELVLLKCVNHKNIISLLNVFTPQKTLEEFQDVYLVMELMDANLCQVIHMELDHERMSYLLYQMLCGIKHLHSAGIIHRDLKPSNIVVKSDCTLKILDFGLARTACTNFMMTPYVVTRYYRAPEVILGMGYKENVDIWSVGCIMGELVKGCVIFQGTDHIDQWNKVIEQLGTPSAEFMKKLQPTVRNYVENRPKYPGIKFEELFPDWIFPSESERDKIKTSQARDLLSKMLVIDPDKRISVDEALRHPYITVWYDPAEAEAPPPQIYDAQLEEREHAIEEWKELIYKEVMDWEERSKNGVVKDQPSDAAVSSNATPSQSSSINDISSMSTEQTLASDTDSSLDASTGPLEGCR
Sequence of JNK1α1 (P45983 1-384 isoform P45983-2): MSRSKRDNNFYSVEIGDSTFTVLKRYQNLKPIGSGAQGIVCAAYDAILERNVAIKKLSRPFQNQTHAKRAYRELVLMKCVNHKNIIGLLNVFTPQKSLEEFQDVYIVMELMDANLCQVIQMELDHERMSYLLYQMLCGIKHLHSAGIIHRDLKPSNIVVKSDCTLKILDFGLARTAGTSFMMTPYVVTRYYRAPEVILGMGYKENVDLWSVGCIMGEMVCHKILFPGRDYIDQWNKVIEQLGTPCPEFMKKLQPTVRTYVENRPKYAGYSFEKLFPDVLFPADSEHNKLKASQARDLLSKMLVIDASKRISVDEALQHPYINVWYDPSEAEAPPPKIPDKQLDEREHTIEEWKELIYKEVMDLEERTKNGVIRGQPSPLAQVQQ
T8 sequence (O15264 whole entry): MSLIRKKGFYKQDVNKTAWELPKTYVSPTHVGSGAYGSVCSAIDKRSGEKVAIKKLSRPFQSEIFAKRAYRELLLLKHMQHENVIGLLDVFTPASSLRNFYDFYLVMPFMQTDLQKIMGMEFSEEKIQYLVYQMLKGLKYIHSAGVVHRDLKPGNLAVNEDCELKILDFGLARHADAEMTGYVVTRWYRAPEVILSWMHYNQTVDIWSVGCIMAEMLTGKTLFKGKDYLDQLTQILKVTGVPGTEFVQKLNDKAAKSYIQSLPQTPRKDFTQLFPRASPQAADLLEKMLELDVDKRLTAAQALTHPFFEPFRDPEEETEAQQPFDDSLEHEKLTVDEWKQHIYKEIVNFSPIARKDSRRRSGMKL
T6 sequence (P53778 whole entry): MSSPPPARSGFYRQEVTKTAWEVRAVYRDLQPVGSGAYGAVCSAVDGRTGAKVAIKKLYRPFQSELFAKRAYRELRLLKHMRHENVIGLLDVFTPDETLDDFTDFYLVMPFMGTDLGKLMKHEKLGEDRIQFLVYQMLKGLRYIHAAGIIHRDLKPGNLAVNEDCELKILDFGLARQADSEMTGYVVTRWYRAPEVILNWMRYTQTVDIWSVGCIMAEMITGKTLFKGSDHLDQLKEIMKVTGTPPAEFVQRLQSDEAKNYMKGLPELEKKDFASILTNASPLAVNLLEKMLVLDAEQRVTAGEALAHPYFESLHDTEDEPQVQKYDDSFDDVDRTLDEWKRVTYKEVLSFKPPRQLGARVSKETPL
T4 sequence (P42336 whole entry E542K): as the sequence (P42336 whole entry H1047R) above, with E542K, R1047H counted along it
T4 sequence (P27986 whole entry partner): as the sequence (P27986 whole entry partner) above
T9 sequence (Q15759 whole entry): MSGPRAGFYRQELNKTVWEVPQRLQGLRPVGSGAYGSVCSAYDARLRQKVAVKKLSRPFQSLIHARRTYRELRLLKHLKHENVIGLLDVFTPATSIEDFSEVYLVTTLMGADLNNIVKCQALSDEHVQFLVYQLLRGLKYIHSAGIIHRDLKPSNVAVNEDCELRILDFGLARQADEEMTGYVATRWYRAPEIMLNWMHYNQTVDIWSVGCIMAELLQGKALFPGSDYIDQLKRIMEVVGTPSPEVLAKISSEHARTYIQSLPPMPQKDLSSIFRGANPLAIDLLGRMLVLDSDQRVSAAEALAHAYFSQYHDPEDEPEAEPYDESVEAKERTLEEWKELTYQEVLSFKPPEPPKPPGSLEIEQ
T1 sequence (P42336 whole entry): as the sequence (P42336 whole entry H1047R) above, with R1047H counted along it
T1 sequence (P27986 1-571 partner limits assumed): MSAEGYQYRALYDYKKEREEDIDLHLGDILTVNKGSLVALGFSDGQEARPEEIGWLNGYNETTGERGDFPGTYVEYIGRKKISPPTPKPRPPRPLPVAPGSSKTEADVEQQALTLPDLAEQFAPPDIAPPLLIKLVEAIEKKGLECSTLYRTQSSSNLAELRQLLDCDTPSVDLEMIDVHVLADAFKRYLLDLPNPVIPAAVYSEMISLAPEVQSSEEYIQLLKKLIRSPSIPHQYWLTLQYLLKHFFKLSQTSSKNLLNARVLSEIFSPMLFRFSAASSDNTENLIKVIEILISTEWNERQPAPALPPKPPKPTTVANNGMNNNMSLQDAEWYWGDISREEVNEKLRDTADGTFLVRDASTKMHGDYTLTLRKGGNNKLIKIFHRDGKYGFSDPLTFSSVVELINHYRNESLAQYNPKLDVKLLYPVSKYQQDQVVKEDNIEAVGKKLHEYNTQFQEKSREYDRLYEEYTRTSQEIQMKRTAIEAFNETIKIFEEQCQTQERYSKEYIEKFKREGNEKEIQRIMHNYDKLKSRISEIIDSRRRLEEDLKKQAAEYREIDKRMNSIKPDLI
T2 sequence (P42336 whole entry E545K): as the sequence (P42336 whole entry H1047R) above, with E545K, R1047H counted along it
T2 sequence (P27986 whole entry partner): as the sequence (P27986 whole entry partner) above

Row | SMILES | activity at 20 µM (PI3 kinase (p110α/p65α)) | activity at 20 µM [1] | activity at 20 µM (Blk) | activity at 20 µM (JNK1α1) | activity at 20 µM [2] | activity at 20 µM [3] | Functional GPCR Agonist and Antagonist Screen (panel of 158 GPCRs) | activity at 20 µM (SAPK3 (SAPK=p38MAPK)) | LPS-induced IL-1β production, WT microglia [4] | % Activity [5] | activity at 20 µM (Aurora-C) | phosphorylation of the p38α substrate MK2 [6] | activity at 20 µM (JNK2α2) | % Activity (MLCK) | activity at 20 µM (SAPK4 (SAPK=p38MAPK)) | activity at 20 µM (SAPK2b (SAPK=p38MAPK)) | Ki (NLK) | pKa ([7]; read-out: pKa (UV method), first value) | pKa ([7]; read-out: pKa (UV method), second value) | pKa ([7]; read-out: pKa (potentiometric method), second value)
1 | CN(C)c1cc(-c2ccncc2)c(-c2ccc3ccccc3c2)nn1 [MW108, N, N-dimethyl-6-(naphthalen-2-yl)-5-(pyridin-4-yl)pyridazin-3-amine] | 99% | 98% | 88% | 96% | 99% | 99% | negative | 87% | inhibited LPS-induced IL-1β production | 99% | 113% | inhibited phosphorylation of the p38α substrate MK2 in a concentration-dependent manner | 76% | 94% | 93% |  |  |  |  | 
2 | CN(C)c1cc(-c2ccncc2)c(-c2cccc3ccccc23)nn1 [MW181, N,N-dimethyl-6-(naphthalen-1-yl)-5-(pyridin-4-yl)pyridazin-3-amine] |  |  |  |  |  |  |  |  |  |  |  |  |  |  |  | 6% | 0.199 µM | 4.71 ± 0.03 | 3.19 ± 0.09 | < 3.5
